# Assay results: patent US9610287B2 (H. Lundbeck A/S, priority 2011, dated 2017)
# What was measured:
# [1] = Elimination half life in human; conditions: in vivo
# D2 receptor = D2 receptor (Homo sapiens, UniProt P14416); assay: PET study in healthy subjects, D2 receptor occupancy (11C-raclopride); assay type: in vivo; conditions: read-out: D2 receptor occupancy in the putamen
# schizophrenic patients = assay: Randomized, double-blind study of daily vs weekly dosing in schizophrenic patients, PANSS Total Score; assay type: in vivo, human
# Excerpt: The study is a randomized, double-blind, parallel-group, exploratory study of safety, tolerability and PK of daily dosing vs weekly dosing of Compound (I) in schizophrenic patients.
# The open-label period (OL_Period) is the period from start of open-label treatment (baseline) until stop of open-label treatment (at OL-withdrawal or randomisation to double-blind treatment, whichever occurs first).
# The double-blind period (DB_Period) is the period from start of double-blind treatment (randomisation) until stop of double-blind treatment (at DB-withdrawal or completion, whichever occurs first), that is, the entire double-blind period including the PBO_Period.
# The IMP dosing period (IMP_Period) is the period from start of open-label treatment (baseline) until stop of double-blind treatment (at withdrawal or completion, whichever occurs first), that is, the OL_Period plus the DB_Period.
# A study was conducted with a study design as described in Example 2.
# D2 receptors = target: T1, D2 receptors (Rattus norvegicus, UniProt P61169); assay: In vivo binding to D2 receptors in rat brain ([3H]-raclopride); conditions: sc, subcutaneous
# T1 construct: the brain quickly removed and striatum and cerebellum dissected out and homogenized; from tissue; host or cells: striatum of male Wistar rats (in vivo)
# T1 sequence (P61169 whole entry): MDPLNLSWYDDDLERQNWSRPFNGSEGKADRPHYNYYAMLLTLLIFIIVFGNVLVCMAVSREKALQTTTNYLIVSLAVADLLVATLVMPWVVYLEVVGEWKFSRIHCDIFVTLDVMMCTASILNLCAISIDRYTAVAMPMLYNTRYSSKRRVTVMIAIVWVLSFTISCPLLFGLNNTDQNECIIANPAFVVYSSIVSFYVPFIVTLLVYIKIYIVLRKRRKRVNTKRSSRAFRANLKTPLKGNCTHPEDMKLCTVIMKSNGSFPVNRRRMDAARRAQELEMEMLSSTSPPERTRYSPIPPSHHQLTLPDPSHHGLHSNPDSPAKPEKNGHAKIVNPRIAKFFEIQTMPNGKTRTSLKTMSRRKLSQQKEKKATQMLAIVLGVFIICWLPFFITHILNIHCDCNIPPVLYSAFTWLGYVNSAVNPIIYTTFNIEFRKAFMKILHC
# Procedure: Description of In Vivo Binding to D2 Receptors in Rat Brain
# In vivo binding is carried out according to Andersen et al (Eur J Pharmacol, (1987) 144:1-6) with a few modifications (Kapur S. et al, J Pharm Exp Ther, 2003, 305, 625-631). Briefly, 6 rats (male Wistar, 180-200 g) are treated with 20 mg/kg test compound subcutaneous 30 minutes before receiving 9.4 micro Ci [^3H]-raclopride intravenous via the tail vein.
# 15 minutes after the injection of the radio ligand the animals are killed by cervical dislocation, the brain quickly removed and striatum and cerebellum dissected out and homogenized in 5 mL (cerebellum in 20 mL) ice-cold buffer (50 mM K2PO4, pH 7.4). 1.0 mL of the homogenate is filtered through 0.1% PEI—soaked Whatman GF/C filters. This is completed within 60 seconds subsequent to the decapitation. Filters are washed 2 times with 5 mL ice-cold buffer and counted in a scintillation counter. A group of vehicle treated animals is used to determine [^3H]-raclopride total binding in striatum and non-specific binding in cerebellum. The homogenate is measured for protein content by the BCA protein determination assay (Smith P. K. et al (1985) Anal. Biochem., 150: 6-85).
# rats [2] = assay: Condition avoidance response (CAR) model in rats; assay type: in vivo, rat; conditions: at very low levels of D2 receptor occupancy
# rats [3] = conditions: fumarate salt; cited from earlier work
# D1 receptor = D1 receptor (Homo sapiens, UniProt P21728); assay: PET study in healthy subjects, D1 receptor occupancy (11C-SCH23390); assay type: in vivo; conditions: read-out: D1 receptor occupancy in putamen
# Sequence of D1 receptor (P21728 whole entry): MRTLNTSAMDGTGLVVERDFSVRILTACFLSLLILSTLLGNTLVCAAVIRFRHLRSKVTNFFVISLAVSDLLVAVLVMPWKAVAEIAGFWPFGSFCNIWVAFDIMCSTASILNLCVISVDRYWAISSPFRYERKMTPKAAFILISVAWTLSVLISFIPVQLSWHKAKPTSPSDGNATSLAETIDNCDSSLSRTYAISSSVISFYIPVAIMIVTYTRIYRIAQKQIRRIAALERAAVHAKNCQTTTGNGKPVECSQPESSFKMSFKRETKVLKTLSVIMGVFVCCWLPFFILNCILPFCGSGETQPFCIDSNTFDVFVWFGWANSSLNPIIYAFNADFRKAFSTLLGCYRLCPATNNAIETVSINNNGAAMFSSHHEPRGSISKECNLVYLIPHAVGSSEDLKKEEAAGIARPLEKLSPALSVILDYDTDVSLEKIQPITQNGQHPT
# [4] = 2 mg/day given daily for 18 days
# [5] = 10 mg/day given daily for 18 days
# Sequence of D2 receptor (P14416 whole entry): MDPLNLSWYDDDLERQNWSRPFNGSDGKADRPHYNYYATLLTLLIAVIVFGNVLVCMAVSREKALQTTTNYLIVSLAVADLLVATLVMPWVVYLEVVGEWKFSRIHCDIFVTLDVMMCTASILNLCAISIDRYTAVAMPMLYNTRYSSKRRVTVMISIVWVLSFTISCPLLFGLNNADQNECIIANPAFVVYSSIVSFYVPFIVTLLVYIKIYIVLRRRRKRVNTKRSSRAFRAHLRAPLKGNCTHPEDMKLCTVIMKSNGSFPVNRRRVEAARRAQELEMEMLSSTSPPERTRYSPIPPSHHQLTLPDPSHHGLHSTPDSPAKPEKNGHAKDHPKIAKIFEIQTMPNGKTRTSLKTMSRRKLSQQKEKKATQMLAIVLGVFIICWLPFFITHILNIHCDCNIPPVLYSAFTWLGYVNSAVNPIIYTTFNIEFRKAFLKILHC
compound,measurement,setting,value
"CC1(C)CN([C@@H]2C[C@@H](c3ccccc3)c3ccc(Cl)cc32)CCN1 (relative stereo) [Compound (II), trans-1(6-chloro-3-phenyl-indan-1-yl)-3,3-dimethyl-piperazine]",half-life,[1],300 to 400 h
"CN1CCN([C@@H]2C[C@@H](c3ccccc3)c3ccc(Cl)cc32)CC1(C)C [Compound (I), 4-((1R,3S)-6-chloro-3-phenyl-indan-1-yl)-1,2,2-trimethyl-piperazine]",receptor occupancy at 2 mg,D2 receptor; [4],11%
same,receptor occupancy at 10 mg,D2 receptor; [5],43%
same,half-life,[1],~150 h
same,Mean (change in PANSS) Total Score from randomization,"schizophrenic patients; 10 mg/day, study day 29",1.55
same,Mean (change in PANSS) Total Score from randomization,"schizophrenic patients; 10 mg/day, study day 36",−1.00
same,Mean (change in PANSS) Total Score from randomization,"schizophrenic patients; 10 mg/day, study day 43",−2.50
same,Mean (change in PANSS) Total Score from randomization,"schizophrenic patients; 10 mg/day, study day 50",−3.50
same,Mean (change in PANSS) Total Score from randomization,"schizophrenic patients; 10 mg/day, study day 57",−5.80
same,Mean (change in PANSS) Total Score from randomization,"schizophrenic patients; 20 mg/week, study day 29",0.00
same,Mean (change in PANSS) Total Score from randomization,"schizophrenic patients; 20 mg/week, study day 36",0.80
same,Mean (change in PANSS) Total Score from randomization,"schizophrenic patients; 20 mg/week, study day 43",−2.00
same,Mean (change in PANSS) Total Score from randomization,"schizophrenic patients; 20 mg/week, study day 50",−1.22
same,Mean (change in PANSS) Total Score from randomization,"schizophrenic patients; 20 mg/week, study day 57",−4.38
same,Mean (change in PANSS) Total Score from randomization,"schizophrenic patients; 30 mg/week, study day 29",1.09
same,Mean (change in PANSS) Total Score from randomization,"schizophrenic patients; 30 mg/week, study day 36",0.50
same,Mean (change in PANSS) Total Score from randomization,"schizophrenic patients; 30 mg/week, study day 43",4.00
same,Mean (change in PANSS) Total Score from randomization,"schizophrenic patients; 30 mg/week, study day 50",−4.14
same,Mean (change in PANSS) Total Score from randomization,"schizophrenic patients; 30 mg/week, study day 57",−5.43
same,Mean (change in PANSS) Total Score from randomization,"schizophrenic patients; 45 mg/week, study day 29",0.40
same,Mean (change in PANSS) Total Score from randomization,"schizophrenic patients; 45 mg/week, study day 36",−3.50
same,Mean (change in PANSS) Total Score from randomization,"schizophrenic patients; 45 mg/week, study day 43",−5.70
same,Mean (change in PANSS) Total Score from randomization,"schizophrenic patients; 45 mg/week, study day 50",−8.00
same,Mean (change in PANSS) Total Score from randomization,"schizophrenic patients; 45 mg/week, study day 57",−6.88
same,reduction in PANSS Total Score compared with daily dose of 10 mg/day,"schizophrenic patients; once weekly, 20 mg/week to 45 mg/week, in particular 30 and 45 mg/week",as effective in reduction in PANSS Total Score as a daily dose of 10 mg/day
same,reduction of PANSS Total Score compared with daily dose of 10 mg/day,"schizophrenic patients; once weekly, between about 30 mg/week and about 45 mg/week",at least to the same extend as a daily dose of 10 mg/day
same,ED50,D2 receptors,4.1 mg/kg
same,antipsychotic activity in CAR model,rats [2],possesses antipsychotic activity
same,induction of catalepsy,rats [3],does not induce catalepsy
same,receptor occupancy at 2 mg,D1 receptor; [4],32%
same,receptor occupancy at 10 mg,D1 receptor; [5],69%
